Consider two substances from US7569229B2, “Monocyte locomotion inhibitory factor” (Center for Blood Research, Inc., priority 1998, dated 2009).

Data set [1] concerns human peripheral blood MP. The data set can be described thus: Inhibition of Luminol enhanced chemiluminescence (respiratory burst) in opsonized zymosan activated MP. Format: cell-based. To be noted: measured as mV/10^6 cells over a 29-30 minute period; six experiments; comparing experimental conditions, except 1 vs 10 μg of construct; FIG. 3A. The procedure: (§1) (b) Preparation of cells. MP (95±2%) and neutrophils (95±2%) were obtained from the peripheral blood of fasting, non-smoking individual donors, using Ficoll-Paque centrifugation and further enrichment of MP by nylon wool adherence. Cell viability was established (≧94%) before and after the experiments by trypan blue dye exclusion.
(§2) (c) MLIF activity. In vitro MLIF activity was assessed either by the inhibition of MP chemotaxis towards zymosan (Sigma) activated serum in double-filter (upper filter 5.0 μm pore size (Nuclepore), lower cell-impermeable filter 8.0 μm pore size (Sartorius)) Boyden chambers, or by the inhibition of MP or neutrophil, Luminol™ (Eastman Kodak) enhanced chemiluminescence after opsonized zymosan particle ingestion, measured in Biorbit 1250 chemiluminometer (LKB) (n>6). In vivo MLIF activity was measured by its capacity to inhibit DNCB (1-chloro-2-4 dinitrobenzene) contact hypersensitivity reactions in individually-caged Harley short hair adult guinea pigs previously (14 days) sensitized with a vesicant DNCB dose (10 mg/ml acetone olive oil (4:1) soaked 5 mm diameter Whatman #2 filter paper disks). […] Disks were removed after 24 h, and redness-induration measured blindly a day later. […]
(§3) In vitro activity of native MLIF and its synthetic custom construct is measured. […]

Data set [2] relates to human peripheral blood MP. Put plainly: Inhibition of MP chemotaxis towards zymosan activated serum in double-filter Boyden chambers. In kind it is cell-based. Particulars: Boyden chamber; native MLIF and construct in similar concentrations, comparable to each other; n=8 for each group; FIG. 3C. The method, then: as §1, §2, §3
Data set [3] deals with human peripheral blood neutrophils. Put plainly: Inhibition of Luminol enhanced chemiluminescence (respiratory burst) in opsonized zymosan activated neutrophils. Format: cell-based. To be noted: measured as mV/10^6 cells over a 29-30 minute period; six experiments; comparing experimental conditions; FIG. 3B. The method, then:
as §1, §2, §3

Data set [4] concerns DNCB contact hypersensitivity reactions in guinea pigs. Put plainly: Inhibition of DNCB contact hypersensitivity skin reaction. In kind it is in vivo, guinea pig. To be noted: for Histology of inhibited DNCB reactions: biopsies, compared to normal, non-interfered DNCB reactions; for DNCB skin reaction (mm diameter, or positive/negative with cut-off 5 mm) compared to PBS or virgin axenic medium control: intradermal injection 0.05 ml, native MLIF 8 μg/ml, custom construct 1, 10 or 100 μg/ml, comparable among them, FIG. 4. The method, then:
(c) MLIF activity. In vitro MLIF activity was assessed either by the inhibition of MP chemotaxis towards zymosan (Sigma) activated serum in double-filter (upper filter 5.0 μm pore size (Nuclepore), lower cell-impermeable filter 8.0 μm pore size (Sartorius)) Boyden chambers, or by the inhibition of MP or neutrophil, Luminol™ (Eastman Kodak) enhanced chemiluminescence after opsonized zymosan particle ingestion, measured in Biorbit 1250 chemiluminometer (LKB) (n>6). In vivo MLIF activity was measured by its capacity to inhibit DNCB (1-chloro-2-4 dinitrobenzene) contact hypersensitivity reactions in individually-caged Harley short hair adult guinea pigs previously (14 days) sensitized with a vesicant DNCB dose (10 mg/ml acetone olive oil (4:1) soaked 5 mm diameter Whatman #2 filter paper disks). Intradermal injections of 0.05 ml of either native MLIF (8 μg/ml), MLIF custom construct (0.001-100 μg/ml), or pyrogen free phosphate buffered saline pH 7.4, were applied just beneath and simultaneous to the application of the eliciting dose of DNCB (0.05 mg/ml soaked paper disks). Disks were removed after 24 h, and redness-induration measured blindly a day later. Biopsies were obtained for histological evaluation in selected samples. The animals were not sacrificed.
(f) Statistical analysis. Results of in vitro MLIF activity were analyzed by non-parametric Mann-Whitney or Kruskall-Wallis analysis of variance test, and in vivo activity results by Student's t and Fisher's exact tests.
The reaction is measured in mm diameter against the eliciting dose, or as positive or negative reactions of the same with a cut-off criterium of 5 mm in diameter.

The test system of data set [5] is human mononuclear phagocytes. Put plainly: Cytoplasmic cyclic AMP in human mononuclear phagocytes. In kind it is cell-based. To be noted: interaction through a receptor on human mononuclear phagocytes.
In data set [6] the test system is polymorphonuclear eosinophils. Put plainly: Effect on eosinophils (locomotion or metabolism). Format: cell-based. Particulars: locomotion or metabolism of polymorphonuclear eosinophils.

As to MQCNS [custom construct], the “Areas under the curve of chemiluminescence, MP” value in data set [1] is listed as “significantly (p<0.01) different”. Besides, the “Human peripheral blood MP chemotaxis compared to the normal chemotactic runs (i.e., 100%)” value in data set [2] was “significantly lower (p<0.01)”. In addition, the “Areas under the curve of chemiluminescence, neutrophils” value in data set [3] is on record as “significantly (p<0.01) different”. For the same substance, in data set [4], the “Histology of inhibited DNCB reactions” value is listed as “scarce mononuclear perivascular infiltrate” and the “DNCB skin reaction (mm diameter, or positive/negative with cut-off 5 mm) compared to PBS or virgin axenic medium control” value is listed as “significantly different (p<0.001)”.
Regarding “M - Q - C - N - S (MQCNS; listed as Entamoeba histolytica) [native MLIF, oligopeptide isolated from the supernatant fluid of axenically grown E. histolytica, about 583 Daltons]”, the “Areas under the curve of chemiluminescence, MP” value in data set [1] is reported as “significantly (p<0.01) different”. The “Cytoplasmic mediator cyclic AMP” value in data set [5] is on record as “increase”. For the same substance, the “Human peripheral blood MP chemotaxis compared to the normal chemotactic runs (i.e., 100%)” value in data set [2] is “significantly lower (p<0.01)”. Also, the “Areas under the curve of chemiluminescence, neutrophils” value in data set [3] is listed as “significantly (p<0.01) different”. The Storage stability entry (at −70° C.) was “storable”. In addition, the Heat stability result (incubation at 56° C.) is recorded as “heat stable”. For the same substance, in data set [4], the “Histology of inhibited DNCB reactions” value is recorded as “scarce mononuclear perivascular infiltrate” and the “DNCB skin reaction (mm diameter, or positive/negative with cut-off 5 mm) compared to PBS or virgin axenic medium control” value is “significantly different (p<0.001)”. The “Effect on other cells, such as eosinophils” value in data set [6] is recorded as “does not affect”.
